For one data set, the system named is CaCl2-Arrhythmie. The data set is described as follows: CaCl2-induced arrhythmia in the rat (antifibrillatory effect). The settings on record: for ED50: read-out: CaCl2-Arrhythmie Ratte, ED50. The format is in vivo, Ratte.
Another data set is described as follows: in vivo. The format is in vivo. Conditions: in vivo; for LD50: intravenous use according to b33, values in brackets = confidence range, read-out: akute Toxizität Ratte, LD50; for selectivity ratio: therapeutic breadth, read-out: Q LD50/ED50.
For data set [1], the system named is Ratte. Conditions: rat, values in brackets = confidence range, cited from earlier work.
For data set [2], the system named is Ratte. The data set is described as follows: in vivo. Format: in vivo.
Where [3] appears, read: rat, antifibrillatory effect, values in brackets = confidence range.
Where [4] appears, read: rat LD50 / rat CaCl2-arrhythmia ED50.

Where a name gives a salt, the structure may show the parent alone. Read-outs that look alike come from different tables or passages of the source. Marks after values point to notes of the source that are not given here.

A word on the ED50: it is the midpoint of the dose-response relation. Usually LD50 stands for the dose expected to kill half of the subjects tested.

Consider `CN1C(=O)c2ccccc2N(C(=O)CCCCCNC2CCCCC2)c2ccc(Cl)cc21` [Beispiel 8, 8-Chlor-5-(6-cyclohexylamino-hexanoyl)-5,10-dihydro-10-methyl-11H-dibenzo/b,e//1,4/diazepin-11-on.HCl], for which the 50% effective dose (ED50) in the data set on CaCl2-Arrhythmie (setting [3]) is 0.33 mg/kg. In “in vivo” (rat), the median lethal dose (LD50) was 35 mg/kg. In the data set “in vivo” (setting [4]), the selectivity ratio was 106.

In the case of `CC(C)N(CCC(C(N)=O)(c1ccccc1)c1ccccn1)C(C)C` (racemic) [Disopyramid], the ED50 with CaCl2-Arrhythmie (Rattus norvegicus) is 1.3 mg/kg. For the same compound, the selectivity ratio in the data set “in vivo” (rat, worked out with the cited LD50 of m (male) rats) turned out to be 55; in the data set “in vivo” (rat, worked out with the cited LD50 of w (female) rats), 50. Further, the “akute Toxizität Ratte, LD50” value in the data set on Ratte [1] (m (male), literature value from the Palpitin (R) brochure, Gedeon Richter) is reported as “m 72 (60 - 80) * mg/kg”; with Ratte [1] (w (female), literature value (footnote mark printed only on the m line)), “w 66 (50 - 110) mg/kg”.

Take `CN1C(=O)c2ccccc2N(C(=O)CCCCCNC2CCCCC2)c2ccccc21` [Beispiel 7, 5-(6-Cyclohexylamino-hexanoyl)-5,10-dihydro-10-methyl-11H-dibenzo/b,e//1,4/diazepin-11-on.HCl]: the ED50 in the data set with CaCl2-Arrhythmie (setting [3]) turned out to be 0.025 mg/kg. Besides, the 50% lethal dose (LD50) in “in vivo” (rat) was 32 mg/kg. For the same compound, the selectivity ratio in “in vivo” (setting [4]) was 1280.

For “5-(6-Diethylamino-hexanoyl)-5,10-dihydro-10-methyl-11H-dibenzo/b,e//1,4/diazepin-11-on.HCl.0,5 H₂O [Beispiel 4]”, in the data set with CaCl2-Arrhythmie (setting [3]), the “CaCl2-Arrhythmie Ratte, ED50” value is 0,033 (0,011 - 0,10) mg/kg. In addition, in the data set with Ratte [2] (rat, intravenous use according to b33, values in brackets = confidence range), the “akute Toxizität Ratte, LD50” value was 78 (73 - 84) mg/kg. Further, the “Q LD50/ED50” value in the data set on Ratte [2] (therapeutic breadth, rat LD50 / rat CaCl2-arrhythmia ED50) is 2364.

`C=CC1CN2CCC1CC2C(O)c1ccnc2ccc(OC)cc12` (stereo not drawn) [Chinidin]: the 50% effective dose (ED50) with CaCl2-Arrhythmie (setting [3]) turned out to be 2.7 mg/kg. For the same compound, the median lethal dose (LD50) in the data set “in vivo” (rat) worked out at 48 mg/kg. Further, the selectivity ratio in “in vivo” (rat, rat LD50 / rat CaCl2-arrhythmia ED50) was determined as 18.

With `CCN(CC)CC(=O)Nc1c(C)cccc1C` [Lidokain], the 50% effective dose (ED50) in the data set on CaCl2-Arrhythmie (setting [3]) turned out to be 3.1 mg/kg.

Values taken from EP0515796A1, “5-Aminoacyl-5,10-dihydro-11H-dibenzo(b,e)(1,4)diazepin-11-ones, processes for their preparation, and their use as medicaments” (ARZNEIMITTELWERK DRESDEN GmbH, priority 1991, dated 1992).
